Columns and labels:
[1] = test system: MDA-MB-231 human breast cancer orthotopic xenograft; experiment: Single agent anti-tumor activity, MDA-MB-231 human breast cancer orthotopic xenograft (Example 1); type: in vivo, athymic nude mice; settings: day 71 post implantation; Compound B 150 mg/kg po qw days 50, 57, 64; Compound A 20 mg/kg iv days 50, 54, 58; p<0.05 compared to vehicle controls
Method: Treatment started on day 50 following orthotopic implantation of 7.5×10^6 MDA-MB-231 human breast cancer cells into the mammary fat pad. Starting tumor volume averaged 160 mm^3 (range=76 to 286); n=8/group. […] The vehicle for […] is 10% Tris-HCl buffer and 90% 1×PBS, Statistical analysis performed on delta tumor volumes on day 71 post implantation using a One-way ANOVA followed by a post hoc Tukey test.

[2] = test system: human TNF; experiment: Human TNF in MDA-MB-231 tumor lysates after treatment; type: in vivo; settings: tumors collected 6 hrs after final dose; n=4, no statistical analysis
Excerpt: (§1) Due to the small sample size (n=4), statistical analysis was not performed.

[3] = test system: mouse TNF; experiment: Mouse TNF in MDA-MB-231 breast xenograft tissue after treatment; type: in vivo; settings: tumors collected 6 hrs after final dose; n=4, no statistical analysis
Excerpt: as §1

[4] = test system: TNF mRNA; settings: Colon 38 tumor bearing mice (Joseph WR, 1999); cited from earlier work
[5] = test system: HS944.t human melanoma xenograft; settings: B 100 mg/kg po qw; A 15 mg/kg iv; combination; days 14 and 21
Method: Treatment started on day 14 following subcutaneous implantation of 5.0×10^6 Hs944.t human melanoma cancer cells in 50% basement membrane matrix. Starting tumor volume averaged 245 mm^3 (range=146 to 321); n=8/group. In this study, (s)—N—((S)-1-cyclohexyl-2-{(S)-2-[4-(4-fluoro-benzoyl)-thiazol-2-yl]-pyrrolidin-1-yl}-2-oxo-ethyl)-2-methylamino-propionamide was administered orally (po) at 100 mg/kg, qw, 5,6-dimethylxanthenone-4-acetic acid was administered intravenously (iv) at 15 mg/kg, or (S)—N—((S)-1-cyclohexyl-2-{(S)-2-[4-(4-fluoro-benzoyl)-thiazol-2-yl]-pyrrolidin-1-yl}-2-oxo-ethyl)-2-methylamino-propionamide and 5,6-dimethylxanthenone-4-acetic acid were administered in combination on days 14 and 21 post implantation, Vehicle control for (S)—N—((S)-1-cyclohexyl-2-{(S)-2-[4-(4-fluoro-benzoyl)-thiazol-2-yl]-pyrrolidin-1-yl}-2-oxo-ethyl)-2-methylamino-propionamide is 30% 0.1N HCl and 70% 100 mM sodium acetate buffer, pH 4.63, Vehicle control for 5,6-dimethylxanthenone-4-acetic acid is 10% 1× Tris-HCl and 90% 1×PBS, Statistical analysis performed on tumor volumes from day 14-27 post implantation using a repeated measures MANOVA test.

Row | SMILES | single agent anti-tumor activity (delta tumor volumes vs vehicle controls) [1] | human TNF in MDA-MB-231 tumor lysates [2] | mouse TNF in xenograft tissue [3] | TNF mRNA in tumor, spleen, and liver [4] | surviving animals at study termination [5]
1 | CN[C@@H](C)C(=O)N[C@H](C(=O)N1CCC[C@H]1c1nc(C(=O)c2ccc(F)cc2)cs1)C1CCCCC1 [Compound B, (S)—N—((S)-1-Cyclohexyl-2-{(S)-2-[4-(4-fluoro-benzoyl)-thiazol-2-yl]-pyrrolidin-1-yl}-2-oxo-ethyl)-2-methylamino-propionamide] | demonstrated single agent anti-tumor activity | increase in human TNF |  |  | 
2 | Cc1ccc2c(=O)c3cccc(CC(=O)O)c3oc2c1C [Compound A, 5,6-dimethylxanthenone-4-acetic acid] | demonstrated single agent anti-tumor activity |  | increase in mouse TNF | increase TNF mRNA | 7/8
